Laboratory results from US12594271B2, “Combination therapy for cancer” (Health Research, Inc., priority 2019, dated 2026).

Tested on: MDSCs
Experiment: MDSC suppression assay: inhibition of T cell proliferation by in vitro generated MDSCs
Format: cell-based, mouse
Conditions: ATRA 10 μM at start of culture, side-by-side with BRQ 1 μM
Experimental: FIG. 2. […] (A) MDSCs were produced in vitro from mouse bone marrow cells using GM-CSF and G-CSF±BRQ (1 μM) or ATRA (10 μM) at the start of the 4-day culture. Cells tested for their ability to inhibit T cell proliferation (1:1 ratio), as in FIG. 5. Fresh BM=Uncultured bone marrow cells. (B) Similar to A, except that uridine (200 μM) was added to rescue the effect of BRQ. (C) Expression of IRF8 (upper) or SLFN4 (lower) was analyzed by qRT-PCR in Lin^− BM cells cultured as in A for 2 days. Data normalized to the vehicle.
In Vitro Development of MDSCs. Unfractionated mouse bone marrow cells were cultured in dishes with recombinant mouse G-CSF and recombinant mouse GM-CSF (40 ng/ml of each cytokine) for 96 hours to produce MDSCs, as described (Marigo et al. Immunity 32:790-802, 2010). After culture, cells were collected and analyzed by flow cytometry for the indicated cell surface markers. Uncultured or fresh bone marrow (BM) cells served as a negative control.
Cultured Cells Develop Potent Immunosuppressive Capacity. Using the methods described for FIG. 4, experiments were then performed to determine whether the cells generated from this BM culture system functionally behaved as MDSCs, based on their ability to inhibit T cell proliferation in vitro. To that end, fresh BM (i.e., no in vitro culture) or cultured BM cells (i.e., MDSCs at two different MDSC-to-T cell ratios of 1:1 or 1:2) were co-mixed in 96-well plates with CellTrace Violet (CTV)—stained syngeneic naïve splenocytes as a source of T cells and stimulated with or without soluble agonistic anti-CD3 monoclonal antibody (mAb) (1 μg/ml) for 72 hours. After co-culture, CTV dye dilution in the gated CD4^+ or CD8^+ T cell fractions within the splenocyte populations was analyzed by flow cytometry to determine the extent of proliferation based on dye dilution. In FIG. 5, top panels show CTV dye dilution, as determined by flow cytometry and depicted as a histogram; bottom panels indicate the percentage of proliferation, based on quantification of the histogram data. […]

Compound: CC1=C(/C=C/C(C)=C/C=C/C(C)=C/C(=O)O)C(C)(C)CCC1 [ATRA, all-trans retinoic acid]
- ability of in vitro generated MDSCs to inhibit CD4+ or CD8+ T cell proliferation: BRQ is more effective than ATRA
